Results on 2 molecules are retold here after publication PMC9299485, “4‐Iodopyrimidine Labeling Reveals Nuclear Translocation and Nuclease Activity for Both MIF and MIF2” (Chemistry (Weinheim an Der Bergstrasse, Germany), 2021).

SMILES strings stand for the structures. Like-named read-outs stand apart in the source and are kept apart here.

Assay [1] concerns the target T1, MIF2 (Homo sapiens, UniProt P30046).
T1 construct: made in house; host or cells: E. coli BL21(DE3), pET20b(+)
Kind of assay: Labeling of recombinant MIF2 by probe 8, SDS-PAGE in-gel fluorescence, competition. In kind it is binding. The following applies: Figure 2G. Here is the method: (§1) 4. Purified protein labeling and Mass spectra
(§2) 4.1 MIF or MIF2 labeling with probe 8
(§3) MIF or MIF2 were diluted to desired concentration with PBS buffer and incubated with probe
(§4) 8 at corresponding concentration and for corresponding time. Subsequently, the mixture was
(§5) denatured (99 °C, 10 min). Labeled protein and free probe were separated by 12% Bis-Tris gel
(§6) (Bio-Rad Laboratories, #4561084). Probe 8 labeled protein was visualized using in-gel
(§7) 4.2 MIF or MIF2 labeling and mass spectra
(§8) Figure S2. Mass spectra of labeled MIF2. (A) Native MIF2 and probe 8 (B) or probe 9 (C)
(§9) (1 picture or pasted object on this page, not shown here)

Assay [2] deals with T1, MIF2. Kind of assay: MIF2 tautomerase activity inhibition (PP substrate, UV 300 nm). In kind it is biochemical. Conditions: for IC50: n=3, read-out: IC50 MIF2. On the procedure: 2. Preparation of recombinant MIF and MIF2. […]
Purity of obtained protein was tested by SDS-PAGE and Coomassie staining. […]
(§10) The detailed procedure to produce recombinant human MIF2 was reported in our previous publications.[7] Gene sequences of the human MIF2 gene (Invitrogen) was adapted to bacterial expression. After subcloning into a pET20b(+) expression vector, IPTG-induced expression was performed in E.coli strain BL21(DE3). MIF2 proteins were overproduced overnight and harvested cells were resuspended and sonicated. The soluble fraction was puriﬁed using a Q sepharose column (GE Healthcare) with a gradient of NaCl. The fractions containing MIF2 were brought to 1.7 M ammonium sulfate and loaded on a phenyl sepharose column (GE Healthcare) and eluted with a gradient to 0 M ammonium sulfate in a 20 mM sodium phosphate buffer, pH 8.0. Finally, the proteins were purified by size exclusion chromatography on a Superdex75 column (GE Healthcare) in 20 mM sodium phosphate buffer, pH 8.0, with an elution volume characteristic for trimeric MIF2. The collected protein was concentrated using a VivaSpin centrifugation column with a molecular weight cut off at 5000 D a (Sartorius Stedim Biotech GmbH). Purified proteins were aliquoted, snap frozen in liquid nitrogen, and stored at –80 °C. Purity of obtained protein was tested by SDS-PAGE and coomassie staining. The concentration of protein was determined using the Bradford a ssay.
(§11) 3.1 MIF and MIF2 Inhibition
(§12) The protocol for measuring inhibition of MIF or MIF2 tautomerase enzyme activity was described previously.[5] 500 nM MIF solution (180 µL) or 100 nM MIF2 solution (180 µL) in boric acid buffer ([…], pH 6.2) was mixed with 20 mM EDTA solution (10 µL) in demineralized water. A solution of the desired compound dissolved in DMSO (10 µL) or blank DMSO (10 µL) was added. The resulting mixture was preincubated at room temperature for 10 minutes.
(§13) Subsequently, 50 µL of this mixture was mixed with 50 µL of a 1 mM 4-HPP solution for MIF or 1 mM PP solution for MIF2 in ammonium acetate buffer (50 mM, pH 6.0). Thereafter, MIF or MIF2 tautomerase activity was monitored by measuring the increase of UV absorbance at 306 nm for MIF or 300 nm for MIF2 over time. The MIF or MIF2 tautomerase activity of the mixture with blank DMSO dilution was set to 100% enzyme activity. Noncatalyzed conversion of the substrate in the mixture without MIF or MIF2 was set to 0%. The data acquired from the first 3 minutes of the measurement were used to calculate the initial conversion speed. All experiments were performed in triplicate and data processing was done using the program […]
(§14) Table S1. IC50 values (10 min) and inactivation parameters of synthesized compounds.
as §9

Assay [3] deals with T2, MIF (Homo sapiens, UniProt P14174).
T2 construct: His tag (C); made in house; host or cells: Escherichia coli BL21 (DE3), pET-20b(+)
T2 sequence (P14174 2-115 limits assumed): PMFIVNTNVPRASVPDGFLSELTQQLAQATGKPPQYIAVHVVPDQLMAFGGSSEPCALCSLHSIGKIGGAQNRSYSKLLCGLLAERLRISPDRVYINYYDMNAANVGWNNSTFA
Kind of assay: Labeling of recombinant MIF by probe 8, SDS-PAGE in-gel fluorescence, competition. The assay is classed as binding. Conditions: pre-treatment of MIF with competitor, Figure 2C, D. Here is the method: as §1, §2, §3, §4, §5, §6, §7, §8, §9

Assay [4] deals with T2, MIF. Kind of assay: MIF tautomerase activity inhibition (4-HPP substrate, UV 306 nm). In kind it is biochemical. On the procedure:
2. Preparation of recombinant MIF and MIF2.
The detailed procedure to produce C-terminal His-tagged recombinant human MIF was reported in our previous publications.[1,4,5] rhMIF was expressed through transforming a pET-20b(+) plasmid containing the target gene into Escherichia coli BL21 (DE3) according to literature procedures.[6] Overexpression was performed and cells were collected and sonicated.
The obtained supernatant was applied to a medium pressure chromatography system (Biologic Duoflow) equipped with a His trap HP (5 mL) column with detection at 280 nm for the eluent.
The column was washed with a binding buffer containing 50 mM Tris and 10% glycerol at pH 7.4 and eluted with elution buffer containing 500 mM imidazole, 50 mM Tris, 10% glycerol at pH 7.4. The pure fractions (as judged by SDS-PAGE) were pooled and subjected to a PD-10 column (GE healthcare) that was equilibrated with PBS buffer at pH 7.4 to remove the high concentration of imidazole. The collected MIF solution was divided into 50 µL aliquots and stored at –80 °C. Purity of obtained protein was tested by SDS-PAGE and Coomassie staining.
The concentration of protein was determined using the Bradford assay.
as §10, §11, §12, §13, §14, §9

In assay [5] the target is T1, MIF2. Kind of assay: Kitz-Wilson inactivation kinetics on MIF2 tautomerase. The following applies: Kitz-Wilson analysis, ±SD, n=3. The assay is classed as biochemical. Here is the method:
(§15) In order to derive the kinetic parameters for inactivation of MIFand MIF2, we employed the approach described by Kitz and Wilson. Briefly, four different concentrations of the inhibitor with four different pre-incubation times were selected. The assay conditions are described above with the difference in incubation time.
(§16) For the data analysis, the pre-incubation times for the different concentration of the inhibitor versus the remaining enzyme activity were plotted, so from the linear regression the slope of each concentration of the probe was obtained ( Table S3). Then the 1/slope versus 1/[inhibitor] were plotted (Figure 4) and from the linear regression line ki was derived from the 1/y -intercept and derived from the slope times the ki as described by Kitz and Wilson.
For example, for the probe 8 the equation is: Y = 7,476*X + 5,069 […]
(§17) Table S4. Kinetics studies results.
(§18) Time-dependent inhibition Kitz and Wilson curve […]
ln (MIF tautomerase activity %) […]
(§19) Time-dependent inhibition on MIF2 Y = 299,5*X + 11,14 […]

Assay [6] addresses T2, MIF. Kind of assay: Kitz-Wilson inactivation kinetics on MIF tautomerase. In kind it is biochemical. On the procedure:
as §15, §16
For example, for the probe 8 the equation is: Y = 7,476*X + 5,069
So, the kinact and the KI values are: kinact =1/5,069 =0.20 min-1
(also on this page, place not known: -1 0 1 2 3 0 50 100 log [FM011] (µM) DDT (%) -1 0 1 2 3 0 50 100 log [ZP308] (µM) DDT activity (%) 0.0 0.5 1.0 1.5 2.0 0 50 100 log [ZP307] (µM) DDT activity (%) 1.4 1.6 1.8 2.0 2.2 0 50 100 log [FM031] (µM) DDT activity (%) pre -incubation cond itions pre -incubation activity o f (Table 1/y-intercept) […]
as §17, §18
ln (MIF tautomerase activity %)
Time-dependent inhibition on MIF Y = 7,476*X + 5,069
Time-dependent inhibition on MIF Y = 12,07*X + 4,234 […]
ln (MIF2 tautomerase activity %)
as §19

Assay [7] concerns the target T2, MIF. Kind of assay: hgDNA cleavage by MIF in presence of tautomerase inhibitors. In kind it is biochemical. The following applies: Figure S3/S7. Here is the method:
(§20) 7. Nuclease activity of MIF and MIF2.
(§21) Human genomic DNA was obtained from RPE-1 cells by DNA extraction following the protocol described in literature.[10] The nuclease assays were conducted by following the procedure described previously.[8] hgDNA (200 ng/reaction) was incubated with MIF or MIF2 in final concentration of 0.62 -20 µM as indicated in 10Mm Tris-HCl buffer (pH 7.0) containing 10mM MgCl2 (B and C) or specific buffer as indicated at 37°C for two hours. The reaction was terminated with loading buffer containing 10mM EDTA and incubation on ice. The human genomic DNA samples were immediately separated on a 1% agarose gel containing SYBR Safe (ThermoFisher) in 0.5 X TBE buffer with initial switch time of 1.5 s and a final switch time of 3.5 s for 12 hours at 6 V/cm. DNA was further detected by chemiluminescence.
(§22) Figure S7. hgDNA cleavage activity of MIF and MIF2. (A) The MIF2 nuclease activity is Mg 2+- […]
(§23) BITC is a covalent inhibitor that can form covalent bond with the N-terminal proline.[11] (C) […]
as §9

Assay [8] addresses T1, MIF2. Kind of assay: hgDNA cleavage by MIF2 in presence of tautomerase inhibitors. The assay is classed as biochemical. The following applies: Figure S3/S7. Here is the method: as §20, §21, §22, §23, §9

For `O=C(O)c1ccc(-c2cc(I)ncn2)cc1` [Compound 2], the “labeling of MIF2 by probe 8 after pre-incubation with inhibitor” value on MIF2 [1] is reported as “outcompeted”. Moreover, the 50% inhibitory concentration (IC50) at MIF2 [2] (Table 1, tautomerase activity, mean±SD) was 125 ± 15 µM; at MIF [4] (Table 1, tautomerase activity, mean±SD, n=3, read-out: IC50 MIF) it was 5 ± 0.46 µM. In addition, at MIF [3], the “labeling of MIF by probe 8 after prior treatment with inhibitor” value was “abolished”. The “potency relative to corresponding chloro-substituted intermediate” value on MIF [4] (iodo compound vs chloro intermediate, Table S1) was “at least two times more potent”.
Regarding `O=C(NCCNc1ccc([N+](=O)[O-])c2nonc12)c1ccc(-c2cc(I)ncn2)cc1` [Compound 8], the “kinact MIF2 (rate of enzyme inactivation)” value at MIF2 [5] was 0.088 ± 0.012 min⁻¹. For the same molecule, the KI (inactivation) was determined as 26 ± 3.2 µM at MIF2 [5] (read-out: KI MIF2 (inhibition constant)) and 1.5 ± 0.2 µM at MIF [6] (Kitz-Wilson analysis, ±SD, n=3, read-out: KI MIF (inhibition constant)). For the same molecule, the kinact on MIF2 [5] (read-out: kinact MIF2 (rate of enzyme inactivation)) is 0.001 to 0.0015 s⁻¹; at MIF [6] (Kitz-Wilson analysis, ±SD, n=3, read-out: kinact MIF (rate of enzyme inactivation) (converted)), 0.00333 s⁻¹. Moreover, the “improvement of potency for MIF2 inhibition compared to parental inhibitor 2” value on MIF2 [2] is on record as 2–6 factor. The IC50 at MIF2 [2] (Table 2, 10 min pre-incubation, ±SD) was 20 ± 2.2 µM; on MIF [4] (Table 2, 10 min pre-incubation, ±SD, n=3, read-out: IC50 MIF) it was 0.27 ± 0.085 µM; on MIF [4] (approximate, read-out: IC50 on MIF), ~0.2 µM. In addition, the “KI on MIF relative to IC50” value on MIF [6] (KI higher than IC50) is given as “about 10 times”. The “effect on DNA cleavage by MIF” value at MIF [7] is given as “could not rescue DNA cleavage”. Moreover, at MIF2 [8], the “effect on DNA cleavage by MIF2” value is given as “could not rescue DNA cleavage”.
